Assay results as given in US9695155B2, “Herbicidal substituted pyrimidinyloxy benzene compounds” (E. I. DU PONT DE NEMOURS AND COMPANY, priority 2013, dated 2017).

How the values were obtained:
kochia = assay: Test E postemergence; assay type: in vivo, Kochia scoparia
Source text: Seeds of plant species selected from corn (Zea mays), soybean (Glycine max), velvetleaf (Abutilon theophrasti), lambsquarters (Chenopodium album), wild poinsettia (Euphorbia heterophylla), palmer pigweed (Amaranthus palmeri), waterhemp (common waterhemp, Amaranthus rudis), surinam grass (Brachiaria decumbens), large (Lg) crabgrass (Digitaria sanguinalis), Brazilian crabgrass (Digitaria horizontalis), fall panicum (Panicum dichotomiflorum), giant foxtail (Setaria faberii), green foxtail (Setaria viridis), goosegrass (Eleusine indica), johnsongrass (Sorghum halepense), ragweed (common ragweed, Ambrosia elatior), barnyardgrass (Echinochloa crus-galli), sandbur (southern sandbur, Cenchrus echinatus), arrowleaf sida (Sida rhombifolia), Italian ryegrass (Lolium multiflorum), dayflower (Virginia (VA) dayflower, Commelina virginica), field bindweed (Convolvulus arvensis), morningglory (Ipomoea coccinea), nightshade (eastern black nightshade, Solanum ptycanthum), kochia (Kochia scoparia), yellow nutsedge (Cyperus esculentus), cocklebur (common cocklebur, Xanthium strumarium), smartweed (ladysthumb smartweed, and hairy beggarticks (Bidens pilosa), were planted into a silt loam soil and treated preemergence with test chemicals formulated in a non-phytotoxic solvent mixture which included a surfactant.
At the same time, plants from these crop and weed species and also horseweed (Canada horseweed, Conyza canadensis), waterhemp_RES1, (ALS & Triazine resistant common waterhemp, Amaranthus rudis), and waterhemp_RES2, (ALS & HPPD resistant common waterhemp, Amaranthus rudis) were planted in pots containing Redi-Earth® planting medium (Scotts Company, 14111 Scottslawn Road, Marysville, Ohio 43041) comprising spaghnum peat moss, vermiculite, wetting agent and starter nutrients were treated with postemergence applications of test chemicals formulated in the same manner. Plants ranged in height from 2 to 18 cm for postemergence treatments (1- to 4-leaf stage). Treated plants and controls were maintained in a greenhouse for 14 to 21 days, after which time all species were compared to controls and visually evaluated. Plant response ratings, summarized in Table E, are based on a scale of 0 to 100 where 0 is no effect and 100 is complete control. A dash (-) response means no test result.

chickweed [1] = assay: Test F preemergence; assay type: in vivo, Stellaria media; details: 21 days, scale 0 to 100
Method in brief: (§1)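 Seeds were sown in a loam soil–sand blend and treated preemergence with compounds formulated in a non-phytotoxic solvent mixture containing surfactant. Pots were kept in a greenhouse for 21 days, then visually rated against untreated controls on a 0–100 scale (0 = no effect, 100 = complete control).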

mustard, black = assay: Test F preemergence; assay type: in vivo, Brassica nigra; details: 21 days, scale 0 to 100
Method in brief: as §1

pigweed = assay: Test F preemergence; assay type: in vivo, Amaranthus retroflexus; details: 21 days, scale 0 to 100
Method in brief: as §1

wild mustard = assay: Test D postemergence; assay type: in vivo, Sinapis arvensis; details: Brassica, post-emergence, scale 0 to 100 (0 no effect, 100 complete control), read-out: Plant response rating, Mustard, Wild
Method in brief: (§2)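 Solvent/surfactant formulations are sprayed pre (silt loam) or post (1–4 leaf plants, 2–18 cm). Plants stay 7–21 days in controlled conditions before a visual 0–100 score is given.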

galium = assay: Test D postemergence; assay type: in vivo, Galium aparine; details: Galium, post-emergence, scale 0 to 100 (0 no effect, 100 complete control), read-out: Plant response rating, Galium
Source text: (§3) Seeds of plant species selected from bluegrass (annual bluegrass, Poa annua), blackgrass (Alopecurus myosuroides), canarygrass (littleseed canarygrass, Phalaris minor), chickweed (common chickweed, Stellaria media), galium (catchweed bedstraw, Galium aparine), bromegrass, downy (downy bromegrass, Bromus tectorum), field poppy (Papaver rhoeas), field violet (Viola arvensis), green foxtail (Setaria viridis), deadnettle (henbit deadnettle, Lamium amplexicaule), Italian ryegrass (Lolium multiflorum), kochia (Kochia scoparia), lambsquarters (Chenopodium album), oilseed rape (Brassica napus), pigweed (Amaranthus retroflexus), chamomile (scentless chamomile, Matricaria inodora), Russian thistle (Salsola kali), speedwell (bird's-eye speedwell, Veronica persica), spring barley (Hordeum vulgare), spring wheat (Triticum aestivum), wild buckwheat (Polygonum convolvulus), wild mustard (Sinapis arvensis), wild oat (Avena fatua), wild radish (Raphanus raphanistrum), windgrass (Apera spica-venti), winter barley (Hordeum vulgare), and winter wheat (Triticum aestivum) were planted into a silt loam soil and treated preemergence with test chemicals formulated in a non-phytotoxic solvent mixture which included a surfactant.
(§4) At the same time, these species were planted in pots containing Redi-Earth® planting medium (Scotts Company, 14111 Scottslawn Road, Marysville, Ohio 43041) comprising spaghnum peat moss, vermiculite, wetting agent and starter nutrients and treated with postemergence applications of the test chemicals formulated in the same manner. Plants ranged in height from 2 to 18 cm (1- to 4-leaf stage). Treated plants and controls were maintained in a controlled growth environment for 7 to 21 days after which time all species were compared to controls and visually evaluated. Plant response ratings, summarized in Table D, are based on a scale of 0 to 100 where 0 is no effect and 100 is complete control. A dash (-) response means no test result.

chickweed [2] = assay: Test D postemergence; assay type: in vivo, Stellaria media; details: Stellaria media, post-emergence, scale 0 to 100 (0 no effect, 100 complete control), read-out: Plant response rating, Chickweed
Method in brief: as §2

deadnettle = assay: Test D postemergence; assay type: in vivo, Lamium amplexicaule; details: Lamium amplexicaule, post-emergence, scale 0 to 100 (0 no effect, 100 complete control), read-out: Plant response rating, Deadnettle
Method in brief: as §2

bluegrass = assay: Test D preemergence; assay type: in vivo, Poa annua; details: Poa annua, pre-emergence, scale 0-100, read-out: Plant response rating, Bluegrass
Source text: as §3, §4

[3] = Postemergence, 31 g ai/ha, scale 0 to 100
[4] = Postemergence, 62 g ai/ha, scale 0 to 100
[5] = Postemergence, 125 g ai/ha, scale 0 to 100
[6] = postemergence, 16 g ai/ha, scale 0 to 100, 0 no effect, 100 complete control

N#Cc1cccc(Oc2ncc(F)cn2)c1-n1cc(C(F)(F)F)cn1 [Compound 79, 3-[(5-fluoro-2-pyrimidinyl)oxy]-2-[4-(trifluoromethyl)-1H-pyrazol-1-yl]benzonitrile]
Plant response rating, Kochia (kochia; [3]): 70 | Plant response rating, Kochia (kochia; [4]): 80 | Plant response rating, Kochia (kochia; [5]): 75 | Plant response rating, Kochia (kochia; [6]): 50 | Plant response rating, Chickweed (chickweed [1]; 16 g ai/ha): 98 | Plant response rating, Chickweed (chickweed [1]; 31 g ai/ha): 100 | Plant response rating, Chickweed (chickweed [1]; 62 g ai/ha): 100 | Plant response rating, Chickweed (chickweed [1]; 125 g ai/ha): 100 | Plant response rating, Chickweed (chickweed [1]; 250 g ai/ha): 100 | Plant response rating, Mustard, Black (mustard, black; 16 g ai/ha): 100 | Plant response rating, Mustard, Black (mustard, black; 31 g ai/ha): 100 | Plant response rating, Mustard, Black (mustard, black; 62 g ai/ha): 100 | Plant response rating, Mustard, Black (mustard, black; 125 g ai/ha): 100 | Plant response rating, Mustard, Black (mustard, black; 250 g ai/ha): 100 | Plant response rating, Pigweed (pigweed; 16 g ai/ha): 100 | Plant response rating, Pigweed (pigweed; 31 g ai/ha): 100 | Plant response rating, Pigweed (pigweed; 62 g ai/ha): 100 | Plant response rating, Pigweed (pigweed; 125 g ai/ha): 100 | Plant response rating, Pigweed (pigweed; 250 g ai/ha): 100

N#Cc1cccc(Oc2ncc(Cl)cn2)c1-n1cc(Br)cn1 [Compound 52, 2-(4-bromo-1H-pyrazol-1-yl)-3-[(5-chloro-2-pyrimidinyl)oxy]benzonitrile]
Plant response rating, Kochia (kochia; [3]): 50 | Plant response rating, Kochia (kochia; [4]): 55 | Plant response rating, Kochia (kochia; [5]): 80 | Plant response rating, Kochia (kochia; [6]): 40 | pest or weed control at 31 g/ha (wild mustard; 31 g ai/ha): 70% | pest or weed control at 62 g/ha (wild mustard; 62 g ai/ha): 80% | pest or weed control at 125 g/ha (wild mustard; 125 g ai/ha): 95% | pest or weed control at 250 g/ha (wild mustard; 250 g ai/ha): 100% | pest or weed control at 31 g/ha (galium; 31 g ai/ha): 70% | pest or weed control at 62 g/ha (galium; 62 g ai/ha): 80% | pest or weed control at 125 g/ha (galium; 125 g ai/ha): 95% | pest or weed control at 250 g/ha (galium; 250 g ai/ha): 100% | pest or weed control at 31 g/ha (chickweed [2]; 31 g ai/ha): 60% | pest or weed control at 62 g/ha (chickweed [2]; 62 g ai/ha): 70% | pest or weed control at 125 g/ha (chickweed [2]; 125 g ai/ha): 85% | pest or weed control at 250 g/ha (chickweed [2]; 250 g ai/ha): 90% | pest or weed control at 31 g/ha (deadnettle; 31 g ai/ha): 65% | pest or weed control at 62 g/ha (deadnettle; 62 g ai/ha): 70% | pest or weed control at 125 g/ha (deadnettle; 125 g ai/ha): 70% | pest or weed control at 250 g/ha (deadnettle; 250 g ai/ha): 100% | pest or weed control at 31 g/ha (bluegrass; 31 g ai/ha): 0% | pest or weed control at 62 g/ha (bluegrass; 62 g ai/ha): 0% | pest or weed control at 125 g/ha (bluegrass; 125 g ai/ha): 10% | pest or weed control at 250 g/ha (bluegrass; 250 g ai/ha): 60%
